The values that follow come from patent publication USRE47302E1 (ONYX THERAPEUTICS INC., priority 2013, dated 2019).

Values after ≈ are worked out from the molar mass of the structure shown.

The series can be described thus: Solubility pH 7. Conditions: for solubility: pH 7, aqueous buffer.

The term solubility denotes the dissolved amount per volume that the medium holds.

As to `COc1ccc(C[C@H](NC(=O)[C@H](C)NC(=O)CN2CCOCC2)C(=O)N[C@@H](C[C@H]2CC[C@H](O)CC2)C(=O)[C@@]2(C)CO2)cc1` [Compound C-1002, (S)-N-((S)-3-((1r,4S)-4-hydroxycyclohexyl)-1-((R)-2-methyloxiran-2-yl)-1-oxopropan-2-yl)-3-(4-methoxyphenyl)-2-((S)-2-(2-morpholinoacetamido)propanamido)propanamide], the concentration in solution (solubility) was 3190 µg/mL (≈ 5.29 mM). In the case of `COc1ccc(C[C@H](NC(=O)[C@H](C)NC(=O)CN2CCOCC2)C(=O)N[C@@H](C[C@@H]2CCCO2)C(=O)[C@@]2(C)CO2)cc1` [Compound C-1016, (S)-3-(4-methoxyphenyl)-N-((S)-1-((R)-2-methyloxhan-2-yl)-1-oxo-3-((S)-tetrahydrofuran-2-yl)propan-2-yl)-2-((S)-2-(2-morpholinoacetamido)propanamido)propanamide], the solubility is 6890 µg/mL (≈ 12 mM). Turning to `COc1ccc(C[C@H](NC(=O)[C@H](C)NC(=O)CN2CCOCC2)C(=O)N[C@@H](C[C@H]2CCOC2)C(=O)[C@@]2(C)CO2)cc1` [Compound C-1025, (S)-3-(4-methoxyphenyl)-N-((S)-1-((R)-2-methyloxiran-2-yl)-1-oxo-3-((S)-tetrahydrofuran-3-yl)propan-2-yl)-2-((S)-2-(2-morpholinoacetamido)propanamido) propanamide], for the setting “pH 7”, the “Solubility pH 7 (μg/mL)” value was >10 μg/mL. As to `COc1ccc(C[C@H](NC(=O)[C@H](C)NC(=O)CN2CCOCC2)C(=O)N[C@@H](CC2CNC(=O)C2)C(=O)[C@@]2(C)CO2)cc1` (stereo partly drawn) [Compound C-1035, (2S)-3-(4-methoxyphenyl)-N-((2S)-1-((R)-2-methyloxiran-2-yl)-1-oxo-3-(5-oxopyrrolidin-3-yl)propan-2-yl)-2-((S)-2-(2-morpholinoacetamido)propanamido)propanamide], the solubility is > 10 µg/mL. The same measure, in the same setting: in the case of `COc1ccc(C[C@H](NC(=O)[C@H](C)NC(=O)CN2CCOCC2)C(=O)N[C@@H](C[C@H]2CCN(C)C2=O)C(=O)[C@@]2(C)CO2)cc1` [Compound C-1040, (2S)-3-(4-methoxyphenyl)-N-((2S)-3-(1-methyl-2-oxopyrrolidin-3-yl)-1-((R)-2-methyloxiran-2-yl)-1-oxopropan-2-yl)-2-((S)-2-(2-morpholinoacetamido)propanamido) propanamide] it was 12300 µg/mL (≈ 20.5 mM). The same measure, in the same setting: in the case of `COc1ccc(C[C@H](NC(=O)[C@H](C)NC(=O)CN2CCOCC2)C(=O)N[C@@H](CN2CCCC2=O)C(=O)[C@@]2(C)CO2)cc1` [Compound C-1042, (S)-3-(4-methoxyphenyl)-N-((S)-1-((R)-2-methyloxiran-2-yl)-1-oxo-3-(2-oxopyrrolidin-1-yl)propan-2-yl)-2-((S)-2-(2-morpholinoacetamido)propanamido)propanamide] it was 8780 µg/mL (≈ 14.9 mM).

Regarding `COc1ccc(C[C@H](NC(=O)[C@@H](C)NC(=O)[C@H]2CNC(=O)C2)C(=O)N[C@@H](CC2CCCC2)C(=O)[C@@]2(C)CO2)cc1` [Compound C-1067, (R)-N-((R)-1-(((S)-1-(((S)-3-cyclopentyl-1-((R)-2-methyloxiran-2-yl)-1-oxopropan-2-yl)amino)-3-(4-methoxyphenyl)-1-oxopropan-2-yl)amino)-1-oxopropan-2-yl)-5-oxopyrrolidine-3-carboxamide], the solubility worked out at 4590 µg/mL (≈ 8.25 mM). Still for that read-out and setting: in the case of `COc1ccc(C[C@H](NC(=O)[C@@H](C)NC(=O)[C@@H]2CNC(=O)C2)C(=O)N[C@@H](CC2CCCC2)C(=O)[C@@]2(C)CO2)cc1` [Compound C-1068, (S)-N-((R)-1-(((S)-1-(((S)-3-cyclopentyl-1-((R)-2-methyloxiran-2-yl)-1-oxopropan-2-yl)amino)-3-(4-methoxyphenyl)-1-oxopropan-2-yl)amino)-1-oxopropan-2-yl)-5-oxopyrrolidine-3-carboxamide] it was 4410 µg/mL (≈ 7.92 mM); in that of `C[C@H](NC(=O)CN1CCOCC1)C(=O)N[C@@H](Cc1ccc2[nH]cnc2c1)C(=O)N[C@@H](CC1CCCC1)C(=O)[C@@]1(C)CO1` [Compound C-1069, (S)-3-(1H-benzo[d]imidazol-5-yl)-N-((S)-3-cyclopentyl-1-((R)-2-methyloxiran-2-yl)-1-oxopropan-2-yl)-2-((S)-2-(2-morpholinoacetamido)propanamido)propanamide], 3540 µg/mL (≈ 6.08 mM). Still for that read-out and setting: in the case of `COc1ccc(C[C@H](NC(=O)[C@@H](C)NC(=O)[C@H]2CC[C@H](O)CC2)C(=O)N[C@@H](CC2CC(F)(F)C2)C(=O)[C@@]2(C)CO2)cc1` [Compound C-1073, (1r,4R)-N-((R)-1-(((S)-1-(((S)-3-(3,3-difluorocyclobutyl)-1-((R)-2-methyloxiran-2-yl)-1-oxopropan-2-yl)amino)-3-(4-methoxyphenyl)-1-oxopropan-2-yl)amino)-1-oxopropan-2-yl)-4-hydroxycyclohexanecarboxamide] it was 2180 µg/mL (≈ 3.67 mM).

With `COc1ccc(C[C@H](NC(=O)[C@@H](C)NC(=O)[C@@H]2CC[C@@H](O)C2)C(=O)N[C@@H](CC2CCCC2)C(=O)[C@@]2(C)CO2)cc1` [Compound C-1077, (1R,3R)-N-((R)-1-(((S)-1-(((S)-3-cyclopentyl-1-((R)-2-methyloxiran-2-yl)-1-oxopropan-2-yl)amino)-3-(4-methoxyphenyl)-1-oxopropan-2-yl)amino)-1-oxopropan-2-yl)-3-hydroxycyclopentanecarboxamide], the solubility stood at 1540 µg/mL (≈ 2.75 mM). Compound `COc1ccc(C[C@H](NC(=O)[C@@H](C)NC(=O)[C@@H]2CC[C@H](O)C2)C(=O)N[C@@H](CC2CCCC2)C(=O)[C@@]2(C)CO2)cc1` [Compound C-1078, (1R,3S)-N-((R)-1-(((S)-1-(((S)-3-cyclopentyl-1-((R)-2-methyloxiran-2-yl)-1-oxopropan-2-yl)amino)-3-(4-methoxyphenyl)-1-oxopropan-2-yl)amino)-1-oxopropan-2-yl)-3-hydroxycyclopentanecarboxamide] gave a solubility of 873 µg/mL (≈ 1.57 mM). The same measure, in the same setting: the value for `C[C@H](NC(=O)CN1CCOCC1)C(=O)N[C@@H](Cc1ccc2c(c1)CC(=O)N2)C(=O)N[C@@H](CC1CCCC1)C(=O)[C@@]1(C)CO1` [Compound C-1081, (S)-N-((S)-3-cyclopentyl-1-((R)-2-methyloxiran-2-yl)-1-oxopropan-2-yl)-2-((S)-2-(2-morpholinoacetamido)propanamido)-3-(2-oxoindolin-5-yl)propanamide] was 2760 µg/mL (≈ 4.62 mM); that for `C[C@H](NC(=O)CN1CCOCC1)C(=O)N[C@@H](Cc1ccc(OC(F)(F)F)cc1)C(=O)N[C@@H](CC1CCCC1)C(=O)[C@@]1(C)CO1` [Compound C-1084, (S)-N-((S)-3-cyclopentyl-1-((R)-2-methyloxiran-2-yl)-1-oxopropan-2-yl)-2-((S)-2-(2-morpholinoacetamido)propanamido)-3-(4-(trifluoromethoxy)phenyl)propanamide] was 125 µg/mL (≈ 0.2 mM); that for `C[C@H](NC(=O)CN1CCOCC1)C(=O)N[C@@H](Cc1ccc2c(c1)CCC(=O)N2)C(=O)N[C@@H](CC1CCCC1)C(=O)[C@@]1(C)CO1` [Compound C-1086, (S)-N-((S)-3-cyclopentyl-1-((R)-2-methyloxiran-2-yl)-1-oxopropan-2-yl)-2-((S)-2-(2-morpholinoacetamido)propanamido)-3-(2-oxo-1,2,3,4-tetrahydroquinolin-6-yl)propanamide] was 3860 µg/mL (≈ 6.32 mM).
